Several values for one entry are separate records, joined by “and”; a condition that tells them apart may be missing. Equal values may be shown once. Inconclusive results and toxic doses are left out.
Tested on: L1210 leukemia ip in BDF1 mice, survival T/C
Assay: NCI In Vivo Anticancer Drug Screen. Data for tumor model L1210 Leukemia (intraperitoneal) in B6D2F1 (BDF1) mice
Details: endpoint: mean survival time, higher = longer survival
Method in brief: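 Antitumor effect is assessed in tumor-bearing animals. Survival in the compound arm is compared with a vehicle-dosed control arm and expressed as their quotient.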

[1] = dose: 25.0 mg/kg/injection, schedule: Q01DX009 (ip), vehicle: Klucel (hydroxypropylcellulose) (HPC)
[2] = dose: 50.0 mg/kg/injection, schedule: Q01DX009 (ip), vehicle: Klucel (hydroxypropylcellulose) (HPC)
[3] = dose: 100.0 mg/kg/injection, schedule: Q01DX009 (ip), vehicle: Klucel (hydroxypropylcellulose) (HPC)
[4] = dose: 100.0 mg/kg/injection, schedule: Q04DX003 (ip), vehicle: saline
[5] = dose: 200.0 mg/kg/injection, schedule: Q01DX009 (ip), vehicle: Klucel (hydroxypropylcellulose) (HPC)
[6] = dose: 200.0 mg/kg/injection, schedule: Q04DX003 (ip), vehicle: saline
[7] = dose: 400.0 mg/kg/injection, schedule: Q04DX003 (ip), vehicle: saline
[8] = dose: 100.0 mg/kg/injection, schedule: Q04DX003 (ip), vehicle: Klucel (hydroxypropylcellulose) (HPC)
[9] = dose: 200.0 mg/kg/injection, schedule: Q04DX003 (ip), vehicle: Klucel (hydroxypropylcellulose) (HPC)
[10] = dose: 400.0 mg/kg/injection, schedule: Q04DX003 (ip), vehicle: Klucel (hydroxypropylcellulose) (HPC)
[11] = dose: 100.0 mg/kg/injection, schedule: Q01DX001 (ip), vehicle: saline
[12] = dose: 200.0 mg/kg/injection, schedule: Q01DX001 (ip), vehicle: saline
[13] = dose: 400.0 mg/kg/injection, schedule: Q01DX001 (ip), vehicle: saline
[14] = dose: 100.0 mg/kg/injection, schedule: Q01DX001 (ip), vehicle: Klucel (hydroxypropylcellulose) (HPC)
[15] = dose: 200.0 mg/kg/injection, schedule: Q01DX001 (ip), vehicle: Klucel (hydroxypropylcellulose) (HPC)
[16] = dose: 400.0 mg/kg/injection, schedule: Q01DX009 (ip), vehicle: Klucel (hydroxypropylcellulose) (HPC)
[17] = dose: 100.0 mg/kg/injection, schedule: Q01DX009 (ip), vehicle: saline with Tween-80
[18] = dose: 200.0 mg/kg/injection, schedule: Q01DX009 (ip), vehicle: saline with Tween-80
[19] = dose: 400.0 mg/kg/injection, schedule: Q01DX009 (ip), vehicle: saline with Tween-80

In the case of `CC1=CCC(C(C)C)C=C1` (stereo not drawn), the T/C [1] was 101 % of control, the T/C [2] was 96 % of control and the T/C [3] was 102 % of control. The T/C (dose: 100.0 mg/kg/injection, schedule: Q01DX009 (ip), vehicle: saline) was 93 % of control, the T/C [4] was 96 % of control and the T/C [5] was 96 % of control. For the same compound, the T/C [6] was 98 % of control and the T/C [7] was 97 % of control.

`CC(OC(=O)CCN1CC1)C1CC1` (stereo not drawn) was tested, and the T/C (dose: 2.5 mg/kg/injection, schedule: Q01DX009 (ip), vehicle: Klucel (hydroxypropylcellulose) (HPC)) was 103 % of control, the T/C (dose: 5.0 mg/kg/injection, schedule: Q01DX009 (ip), vehicle: Klucel (hydroxypropylcellulose) (HPC)) was 102 % of control and the T/C (dose: 10.0 mg/kg/injection, schedule: Q01DX009 (ip), vehicle: Klucel (hydroxypropylcellulose) (HPC)) was 100 % of control. The T/C (dose: 20.0 mg/kg/injection, schedule: Q01DX009 (ip), vehicle: Klucel (hydroxypropylcellulose) (HPC)) was 101 % of control, the T/C (dose: 20.0 mg/kg/injection, schedule: Q04DX003 (ip), vehicle: Klucel (hydroxypropylcellulose) (HPC)) was 103 % of control and the T/C (dose: 40.0 mg/kg/injection, schedule: Q04DX003 (ip), vehicle: Klucel (hydroxypropylcellulose) (HPC)) was 93 % of control. For the same compound, the T/C (dose: 80.0 mg/kg/injection, schedule: Q04DX003 (ip), vehicle: Klucel (hydroxypropylcellulose) (HPC)) was 101 % of control and the T/C [8] was 87 % of control.

In the case of `c1ccc(CC2NCCc3c2[nH]c2ccccc32)cc1` (stereo not drawn), the T/C [1] was 104 % of control, the T/C (dose: 25.0 mg/kg/injection, schedule: Q04DX003 (ip), vehicle: Klucel (hydroxypropylcellulose) (HPC)) was 92 % of control and the T/C [2] was 103 % of control. For the same compound, the T/C [3] was 93 % of control, the T/C [8] was 89 % of control and the T/C [5] was 108 % of control. The T/C [9] was 97 % of control and the T/C [10] was 97 % of control.

For `CC(=O)CCC1(c2cc[n+](C)cc2)CCC(C)(O)C(C(C)=O)C1` (stereo not drawn), the T/C [4] was 93 % of control, the T/C [6] was 94 % of control and the T/C [7] was 100 % of control.

With `O=S(=O)(/C=C\c1ccccc1)N1CCCc2ccccc21` the T/C [11] was 106 % of control, the T/C [4] was 98 % of control and the T/C [12] was 98 % of control. The T/C [6] was 102 % of control, the T/C [13] was 101 % of control and the T/C [7] was 98 % of control.

In the case of `ClC1=C(Cl)C2(Cl)C(c3ccccc3)=CC1(Cl)C2(Cl)Cl` (stereo not drawn), the T/C (dose: 100.0 mg/kg/injection, schedule: Q01DX009 (ip), vehicle: gum acacia) was 93 % of control, the T/C (dose: 100.0 mg/kg/injection, schedule: Q04DX003 (ip), vehicle: gum acacia) was 114 % of control and the T/C (dose: 200.0 mg/kg/injection, schedule: Q01DX009 (ip), vehicle: gum acacia) was 90 % of control. For the same compound, the T/C (dose: 200.0 mg/kg/injection, schedule: Q04DX003 (ip), vehicle: gum acacia) was 99 % of control, the T/C (dose: 400.0 mg/kg/injection, schedule: Q01DX009 (ip), vehicle: gum acacia) was 100 % of control and the T/C (dose: 400.0 mg/kg/injection, schedule: Q04DX003 (ip), vehicle: gum acacia) was 92 % of control.

With `CCCCCCC(=O)N(CCC)CCC` the T/C (dose: 100.0 mg/kg/injection, schedule: Q01DX001 (ip), vehicle: carboxymethylcellulose (CMC)) was 112 % of control, the T/C (dose: 100.0 mg/kg/injection, schedule: Q01DX009 (ip), vehicle: carboxymethylcellulose (CMC)) was 98 % of control and 100 % of control and the T/C (dose: 100.0 mg/kg/injection, schedule: Q04DX003 (ip), vehicle: carboxymethylcellulose (CMC)) was 97 % of control. For the same compound, the T/C (dose: 200.0 mg/kg/injection, schedule: Q01DX001 (ip), vehicle: carboxymethylcellulose (CMC)) was 102 % of control, the T/C (dose: 200.0 mg/kg/injection, schedule: Q01DX009 (ip), vehicle: carboxymethylcellulose (CMC)) was 97 % of control and 104 % of control and the T/C (dose: 200.0 mg/kg/injection, schedule: Q04DX003 (ip), vehicle: carboxymethylcellulose (CMC)) was 98 % of control.

`Cc1ccc(-n2c(O)c(N=Nc3ccc(Cl)cc3)c(=O)n(-c3ccc(Cl)cc3)c2=S)cc1` was tested, and the T/C (dose: 50.0 mg/kg/injection, schedule: Q01DX001 (ip), vehicle: Klucel (hydroxypropylcellulose) (HPC)) was 100 % of control, the T/C [14] was 105 % of control and the T/C [15] was 95 % of control.

For `Cc1[nH]c(N)nc(=S)c1CCCNc1ccc(C(=O)NC(CCC(=O)O)C(=O)O)cc1` (stereo not drawn), the T/C (dose: 50.0 mg/kg/injection, schedule: Q01DX001 (ip), vehicle: saline) was 104 % of control, the T/C [11] was 98 % of control and the T/C [3] was 93 % of control. The T/C [8] was 93 % of control, the T/C [12] was 101 % of control and the T/C [5] was 104 % of control. The T/C [9] was 93 % of control, the T/C [13] was 98 % of control and the T/C [16] was 98 % of control. For the same compound, the T/C [10] was 88 % of control.

In the case of `Cc1ccc(Cl)cc1NC(=S)Nc1ccccc1`, the T/C (dose: 100.0 mg/kg/injection, schedule: Q04DX002 (ip), vehicle: Klucel (hydroxypropylcellulose) (HPC)) was 100 % of control, the T/C (dose: 200.0 mg/kg/injection, schedule: Q04DX002 (ip), vehicle: Klucel (hydroxypropylcellulose) (HPC)) was 103 % of control and the T/C (dose: 400.0 mg/kg/injection, schedule: Q04DX002 (ip), vehicle: Klucel (hydroxypropylcellulose) (HPC)) was 106 % of control.

With `CC(C)(C)/[N+]([O-])=[N+](\[O-])C(C)(C)C` (tested in a mixture with another compound) the T/C [17] was 98 % of control, the T/C [8] was 100 % of control and the T/C [18] was 105 % of control. The T/C [9] was 96 % of control and the T/C [19] was 90 % of control.

For `CCN(C(=O)c1ccc2c3c(cccc13)C=C2)c1ccccc1`, the T/C [11] was 104 % of control, the T/C [12] was 98 % of control and the T/C [13] was 98 % of control.

For `COc1ccc(NCc2ccccc2C#N)c(OC)c1`, the T/C [8] was 103 % of control, the T/C [9] was 108 % of control and the T/C [10] was 103 % of control.

With `Nc1nnnn1C(=O)NCCCl` the T/C [14] was 111 % of control, the T/C [15] was 97 % of control and the T/C (dose: 400.0 mg/kg/injection, schedule: Q01DX001 (ip), vehicle: Klucel (hydroxypropylcellulose) (HPC)) was 94 % of control.

`C=CCN(CC=C)/N=N/c1[nH]ncc1C(=O)OCC` was tested, and the T/C (dose: 100.0 mg/kg/injection, schedule: Q01DX001 (ip), vehicle: saline with Tween-80) was 100 % of control, the T/C [17] was 106 % of control and the T/C (dose: 200.0 mg/kg/injection, schedule: Q01DX001 (ip), vehicle: saline with Tween-80) was 92 % of control. For the same compound, the T/C [18] was 100 % of control, the T/C (dose: 400.0 mg/kg/injection, schedule: Q01DX001 (ip), vehicle: saline with Tween-80) was 101 % of control and the T/C [19] was 104 % of control.

`CCCCCCCCCCCCCCCc1cc(=O)n(-c2ccc(NC(=O)/C=C/C(=O)O)cc2)n1C` was tested, and the T/C [8] was 98 % of control and the T/C [9] was 94 % of control.

With `CSCS(C)=O` (stereo not drawn) the T/C [4] was 104 % of control, the T/C [6] was 103 % of control and the T/C [7] was 103 % of control.

For `CCC1=C[C@H]2CN(CCc3c([nH]c4ccccc34)[C@@](C(=O)OC)(c3cc4c(cc3OC)N(C)[C@H]3[C@@](O)(C(=O)NC)[C@H](OC(C)=O)[C@]5(CC)C=CCN6CC[C@]43[C@@H]65)C2)C1`, the T/C (dose: 0.03 mg/kg/injection, schedule: Q01DX009 (ip), vehicle: saline) was 103 % of control, the T/C (dose: 0.03 mg/kg/injection, schedule: Q01DX009 (ip), vehicle: water) was 103 % of control and the T/C (dose: 0.06 mg/kg/injection, schedule: Q01DX009 (ip), vehicle: saline) was 114 % of control. The T/C (dose: 0.06 mg/kg/injection, schedule: Q01DX009 (ip), vehicle: water) was 115 % of control, the T/C (dose: 0.12 mg/kg/injection, schedule: Q01DX009 (ip), vehicle: saline) was 117 % of control and the T/C (dose: 0.25 mg/kg/injection, schedule: Q01DX009 (ip), vehicle: saline) was 114 % of control. The T/C (dose: 0.25 mg/kg/injection, schedule: Q01DX009 (ip), vehicle: water) was 157 % of control, the T/C (dose: 1.0 mg/kg/injection, schedule: Q01DX009 (ip), vehicle: saline) was 120 % of control and the T/C (dose: 1.0 mg/kg/injection, schedule: Q01DX009 (ip), vehicle: water) was 118 % of control.

For `O=[N+]([O-])c1ccc(SNc2ccc(O)cc2)cc1[N+](=O)[O-]`, the T/C [3] was 101 % of control, the T/C [8] was 94 % of control and the T/C [5] was 100 % of control. The T/C [9] was 100 % of control, the T/C [16] was 105 % of control and the T/C [10] was 95 % of control.

`CC(C)CC(CC(C)C)NCCOC(=O)Cc1ccccc1` was tested, and the T/C (dose: 75.0 mg/kg/injection, schedule: Q01DX001 (ip), vehicle: other) was 93 % of control and the T/C (dose: 150.0 mg/kg/injection, schedule: Q01DX001 (ip), vehicle: other) was 89 % of control.

Reference: PubChem BioAssay AID248 (DTP/NCI, 2004)
